Reference: article PMC10650415, “Synthesis of Tetracyclic Spirooxindolepyrrolidine-Engrafted Hydantoin Scaffolds: Crystallographic Analysis, Molecular Docking Studies and Evaluation of Their Antimicrobial, Anti-Inflammatory and Analgesic Activities” (Molecules, 2023)
Converted amounts (≈) assume the structure as drawn.

How the values were obtained:
[1] = target: T1, Lipoxygenase-5 (LOX-5) enzyme (Homo sapiens, UniProt P09917); test: In vitro lipoxygenase (LOX-5) inhibitory assay; format: biochemical; settings: mean ± SEM, n = 5; read-out: IC50 (LOX-5 inhibition) (converted)
T1 construct: purchased sigma 437996-500U
T1 sequence (P09917 1-674): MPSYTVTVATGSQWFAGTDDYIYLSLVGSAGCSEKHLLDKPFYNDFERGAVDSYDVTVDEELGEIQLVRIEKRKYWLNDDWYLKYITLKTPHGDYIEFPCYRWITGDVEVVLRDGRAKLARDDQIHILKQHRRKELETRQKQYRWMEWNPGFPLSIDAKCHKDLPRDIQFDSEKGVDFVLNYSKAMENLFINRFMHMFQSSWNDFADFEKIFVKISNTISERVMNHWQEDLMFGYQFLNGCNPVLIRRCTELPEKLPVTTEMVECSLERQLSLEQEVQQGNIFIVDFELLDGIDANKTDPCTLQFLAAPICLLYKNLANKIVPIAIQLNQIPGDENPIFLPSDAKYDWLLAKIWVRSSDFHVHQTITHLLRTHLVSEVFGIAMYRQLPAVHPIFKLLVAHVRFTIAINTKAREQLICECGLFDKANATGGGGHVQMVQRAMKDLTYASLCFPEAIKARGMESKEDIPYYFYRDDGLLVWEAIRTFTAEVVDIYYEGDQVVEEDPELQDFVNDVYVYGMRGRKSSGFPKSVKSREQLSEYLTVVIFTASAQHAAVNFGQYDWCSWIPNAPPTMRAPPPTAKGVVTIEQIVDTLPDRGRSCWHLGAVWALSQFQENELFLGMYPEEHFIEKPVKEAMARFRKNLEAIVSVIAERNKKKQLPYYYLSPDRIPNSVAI
Protocol: Lipoxygenases are a family of monomeric proteins that catalyze oxidation of polyunsaturated fatty acids (PUFA) (linoleic, linolenic and arachidonic acid) to produce hydroperoxides. Fractions’ anti-LOX activity was also measured as inhibition of linoleic acid’s peroxidation to hydroperoxylinoleic acid.
To evaluate the prospects of the newly synthesized spirooxindoles as promising drug candidates, we first studied their inhibitory potency against the Lipoxygenase-5 (LOX-5) enzyme.

[2] = tested on: S. aureus ATCC 25923; test: MBC by the agar method; settings: Staphylococcus aureus, ATCC25923
Protocol: (§2) To further determine the killing efficiency of the synthesized spiropyrrolidines against selected strains, the minimum bactericidal concentration (MBC) and the minimum fungicidal concentration (MFC) were assessed by the agar method [54].

[3] = tested on: M. luteus NCIMB 8166; test: MBC by the agar method; settings: for MBC: Micrococcus luteus, NCIMB8166; for MBC/MIC ratio: M. luteus, ≤ 4 bactericidal, >4 bacteriostatic
Protocol: as §2

[4] = tested on: E. coli ATCC 25922; test: MBC by the agar method
Protocol: as §2

[5] = tested on: P. aeruginosa ATCC 27950; test: MBC by the agar method; settings: Pseudomonas aeruginosa, ATCC27950
Protocol: as §2

[6] = tested on: C. albicans ATCC 90028; test: MFC by the agar method; settings: for MFC: Candida albicans, ATCC90028; for MFC/MIC ratio: C. Albicans, ≤ 4 fungicidal, >4 fungistatic
Protocol: as §2

[7] = tested on: C. kreusei ATCC 6258; test: MFC by the agar method; settings: for MFC: Pichia kudriavzevii, ATCC6258; for MFC/MIC ratio: C. Krusei, ≤ 4 fungicidal, >4 fungistatic
Protocol: as §2

[8] = tested on: Micrococcus luteus NCIMB 8166; test: MIC, in vitro micro diffusion method; format: cell-based; settings: NCIMB8166, M. luteus NCIMB 8166
From the text: (§1) In this part, the spiropyrrolidines 4a–m were selected to be screening for their antimicrobial activities, using in vitro micro diffusion method, against multiple bacterial strains (Staphylocoocus aureus ATCC 25923, Escherichia coli ATCC 25922, Pseudomonas aeruginosa ATCC 27950, Micrococcus luteus NCIMB 8166), and two pathogenic reference yeasts namely Candida albicans ATCC 90028 and Candida kreusei ATCC 6258.

[9] = tested on: Staphylocoocus aureus ATCC 25923; test: MIC, in vitro micro diffusion method; format: cell-based; settings: Staphylococcus aureus, ATCC25923; S. aureus ATCC 25923
From the text: as §1

[10] = tested on: λ-carrageenan-induced paw edema; test: Carrageenan-induced paw edema test; format: in vivo; settings: rats; for Increase in Paw Volume, 0 h / Increase in Paw Volume, 1 h / Increase in Paw Volume, 2 h / Increase in Paw Volume, 4 h: 10 mg/kg orally 1 h before carrageenan; for % Inhibition of Edema, 1 h / % Inhibition of Edema, 2 h / % Inhibition of Edema, 4 h: 10 mg/kg orally
From the text: Diclofenac sodium was used as a reference drug.

[11] = tested on: acetic acid-induced writhing; test: Acetic acid-induced writhing test (analgesic); settings: 100 mg/kg; for Number of Writhing: mean ± SE
Protocol: Any writhing was considered a positive response. The efficacy and potency of analgesic activity of the test compounds is inferred from the reduction in the frequency of writhings [53].
Analgesic activity in rats was determined by the protocol described by Tiss et al. [82].

[12] = Acute toxicity (liver and kidney indices); format: in vivo; settings: rats
[13] = tested on: Escherichia coli ATCC 25922; test: MIC, in vitro micro diffusion method; format: cell-based; settings: ATCC25922, E. coli ATCC 25922
[14] = Escherichia coli, ATCC25922, E. coli ATCC 25922

Compound | IC50 [1] [mM] | melting point [°C] | MBC [2] [µg/mL] | MBC [3] [µg/mL] | MBC ([4]; E. coli ATCC 25922) [µg/mL] | MBC [4, 14] [µg/mL] | MBC [5] [µg/mL] | MFC [6] [µg/mL] | MFC [7] [µg/mL] | MIC [8] [µg/mL] | MIC [9] [µg/mL] | MBC/MIC ratio [3] | MFC/MIC ratio [6] | MFC/MIC ratio [7] | Increase in Paw Volume, 0 h [10] | Increase in Paw Volume, 1 h [10] | Increase in Paw Volume, 2 h [10] | Increase in Paw Volume, 4 h [10] | % Inhibition of Edema, 1 h [10] [%] | % Inhibition of Edema, 2 h [10] [%] | also measured
O=C1NC(=O)[C@]2(N1)[C@@H](c1ccc(Cl)cc1)[C@H](c1ccccc1)N[C@@]21C(=O)N(Cc2ccccc2)c2ccccc21 (racemic) [4f] | 8.96 | 195 | 188 (≈ 342 µM) | 750 (≈ 1370 µM) | 375 (≈ 683 µM) | 188 to 374 (≈ 342 to 681 µM) | 375 (≈ 683 µM) | 93.8 (≈ 171 µM) | 93.8 (≈ 171 µM) | – | – | – | – | – | – | – | – | – | – | – | –
O=C1NC(=O)[C@]2(N1)[C@@H](c1ccc(Br)cc1)[C@H](c1ccccc1)N[C@@]21C(=O)N(Cc2ccccc2)c2ccccc21 (racemic) [4g] | 8.36 | 223 | 46.9 (≈ 79 µM) | > 1500 | 375 (≈ 632 µM) | 188 to 374 (≈ 316 to 630 µM) | 188 (≈ 316 µM) | 93.8 (≈ 158 µM) | 93.8 (≈ 158 µM) | 93.8 (≈ 158 µM) | 23.3 (≈ 39.3 µM) | 8 | ≤ 4 | ≤ 4 | – | – | – | – | – | – | –
COc1ccc([C@H]2[C@H](c3ccccc3)N[C@@]3(C(=O)Nc4ccccc43)[C@@]23NC(=O)NC3=O)cc1 (racemic) [4d] | 5.15 | 187 | 93.8 (≈ 206 µM) | 750 (≈ 1650 µM) | 375 (≈ 825 µM) | 188 to 374 (≈ 413 to 823 µM) | 188 (≈ 413 µM) | > 1500 | 93.8 (≈ 206 µM) | – | – | – | – | – | – | – | – | – | – | – | –
O=C(O)Cc1ccccc1Nc1c(Cl)cccc1Cl [Diclofenac sodium, reference compound] | – | – | – | – | – | – | – | – | – | – | – | – | – | – | 0.41 ± 0.11 | 0.59 ± 0.13 | 0.83 ± 0.19 | 1.21 ± 0.39 | 30 | 46 | % Inhibition of Edema, 4 h [10]: 46%; % Inhibition (writhing) [11]: 63%; Number of Writhing [11]: 23 ± 4; Number of Writhing ([11]; listed as diclofenac sodium): 23
O=C1NC(=O)[C@]2(N1)[C@@H](c1ccccc1O)[C@H](c1ccccc1)N[C@@]21C(=O)Nc2ccccc21 (racemic) [4l] | 2.47 | – | 93.8 (≈ 213 µM) | 750 (≈ 1700 µM) | – | 188 (≈ 426 µM) | 93.8 (≈ 213 µM) | 188 (≈ 426 µM) | 93.8 (≈ 213 µM) | – | 46.9 (≈ 106 µM) | – | ≤ 4 | ≤ 4 | 0.57 ± 0.19 | 0.93 ± 0.13 | 1.26 ± 0.31 | 1.73 ± 0.33 | 29 | 18 | % Inhibition of Edema, 4 h [10]: 32%; ALT ([12]; dose of 16.25 mg/kg): 22 ± 1.7 U/L; AST ([12]; dose of 16.25 mg/kg): 101 ± 11 U/L; Albumin ([12]; dose of 16.25 mg/kg): 8.5 ± 1.1 g/L; Creat ([12]; dose of 16.25 mg/kg): 3.41 ± 0.8 µmol/L; Urea ([12]; dose of 16.25 mg/kg): 2.97 ± 0.5 mmol/L; Acute toxicity (result in words) ([12]; up to a dose of 16.25 mg/kg): did not cause any toxicity; % Inhibition (writhing) [11]: 53%; Number of Writhing [11]: 29 ± 6
COc1ccc([C@H]2[C@H](c3ccccc3)N[C@@]3(C(=O)Nc4ccc(Cl)cc43)[C@@]23NC(=O)NC3=O)cc1 (racemic) [4c] | 4.42 | 211 | 188 (≈ 383 µM) | 750 (≈ 1530 µM) | – | 188 (≈ 383 µM) | 93.8 (≈ 192 µM) | 46.9 (≈ 95.9 µM) | > 1500 | 93.8 (≈ 192 µM) | – | 8 | – | – | – | – | – | – | – | – | MIC [13]: 188 µg/mL (≈ 383 µM)
